We go through one molecule from patent US6319951A, “Use of 3-amino-4-hydroxybenzoic acid for the treatment of retroviral infections” (priority 1996, dated 2001).

Entries after “also recorded” stand apart in the source; their conditions may differ.

A short description of data set [1]: Therapeutic Index determination. An excerpt:
The Therapeutic Index of 3-amino-4-hydroxybenzoic acid has been determined. International pharmacological principles demand that for human safety the Therapeutic Index of any drug to be used for human treatment should be greater than a unit, i.e. 1. If the Index is greater than 1, patients can take the drug without medical supervision and without experiencing adverse effects. There are, however, cases where therapeutic indices are less than 1 where the benefits outweigh the risks. This holds in the administration of anti-cancer drugs which mandate the availability of competent medical supervision. The reason behind this is that the drugs are supposed to destroy cancerous human cells. The difference between normal human cells and cancerous human cells is, as expected, minimal. It is expected that the difference between HIV and normal human cells would be colossal.
Therapeutic Index for 3-amino-4-hydroxybenzoic acid is: [formula]
The index for 3-amino-4-hydroxybenzoic acid is 40,000 which is good mathematical proof to back the safety of 3-amino-4-hydroxybenzoic acid as a drug to treat HIV.

Data set [2] has as its system HIV. As to the kind of experiment: T-cell counts of patients JE001-JE0015, once daily dosing (Example 5). It is filed as in vivo. The protocol: These were made on patients JE001-JE0015 who received 200 mg of 3-amino-4-hydroxybenzoic acid orally only once per day for two weeks and whose T-cell counts were analysed after only 6 weeks.
Continuous study of viral load by quantitative PCR when available will show the optimum dose and duration of administration of 3-amino-4-hydroxybenzoic acid.
An explanation is that the CD4 cells which carry HIV die after 3-amino-4-hydroxybenzoic acid kills the virus in them. Later as the precursor cells form other CD4 s without HIV to destroy them, the total CD4 count will be found even higher than before treatment.

The nature of data set [3]: absorption and excretion inferred from oral treatment of gonorrhoea patient. The format is in vivo, human. The settings on record: 1.6 g. As for the experimental part:
When a patient, with a frankly discharging gonorrhoeae was given 1.6 g of 3-amino-4-hydroxybenzoic acid orally, the discharge ceased in 12 hours but recurred in the 24th hour after treatment.

Data set [4] relates to Neisseria gonorrhoeae. As to the kind of experiment: antimicrobial activity, Neisseria gonorrhoeae.
A short description of data set [5]: safety study on human volunteers. It is filed as in vivo. To be noted: 7 volunteers, oral; person 1: 200 mg stat and 200 mg tds x 2/52; person 3: 800 mg stat. An excerpt:
Safety Study on Human Volunteers
Dose & Frequency of 3- Total 3-amino-4-
amino-4-hydroxybenzoic hydroxybenzoic acid
Person acid Intake mg/kg
Each person took 3-amino-4-hydroxybenzoic acid orally.

Consider `Nc1cc(C(=O)O)ccc1O` [3-amino-4-hydroxybenzoic acid], for which, in data set [1], the “Therapeutic Index” value is 40,000 and the selectivity ratio is 40000. Besides, in data set [2] (200 mg orally once per day, two weeks, analysed after 6 weeks, vs patient JC004 (200 mg tds)), the “T-cell results” value is listed as “The results were poor”. Further, the “CD4 count when counted earlier than three months” value in data set [2] (earlier than three months) is on record as “low figures even lower than before the start of treatment”. The “absorption from the gut / excretion” value in data set [3] was “sufficiently absorbed from the gut; also recorded: well absorbed and excreted”. For the same molecule, in data set [4], the antimicrobial activity entry is “established”. Further, the persons experiencing nausea result in data set [5] is “Only persons 1 and 3 experienced nausea without vomiting”.
